According to patent publication US7718768B2, “Biologically active peptide [sequence]” (CMS Peptides Patent Holding Company Limited, priority 2001, dated 2010):
Several values for one entry are separate records, joined by “and”; a condition that tells them apart may be missing. Identical values can stand only once. Marks after values point to notes of the source that are not given here. No end group written: not given here.

B1: IFN-γ: recombinant mouse interferon-γ, Beijing Biotech Inc.; positive control immunostimulant (protein, UniProt P01580 23-155, looked up)
Interferon gamma: HGTVIESLESLNNYFNSSGIDVEEKSLFLDIWRNWQKDGDMKILQSQIISFYLRLFEVLKDNQAISNNISVIESHLITTFFSNSKAKKDAFMSIAKFEVNNPQVQRQAFNELIRVVHQLLPESSLRKRKRSRC

Key:
T lymphocyte [1] = assay: T lymphocyte IL-2 secretion test (HT-2 cell bioassay of ConA supernatant); format: in vivo, BALB/c mice; conditions: IFN-γ and IL-2 groups 3×10^5 IU/kg/day, X ± SD
Method: The above substances were all dissolved in 0.5 ml saline and injected intraperitoneal (i.p.) for 15 continuous days, once per day.
Spleen cells of density 1×10^6/ml were placed onto a 96 wells cell culture plate, 100 μl/well, three parallel wells each of the assay sample and control sample per mouse. To the assay wells, 100 μl/well ConA of 100 μg/ml in RPMI-1640 was added, and 100 μl/well plain RPMI-1640 was used for the controls. The cells were incubated for 66 hrs at 37° C., 5% CO2. The cells were then pelleted by centrifugation at 150 g for 10 minutes.
HT-2 cells at log phase were collected by centrifugation at 150 g for 10 minutes, and washed three times with cold Hank's solution by re-suspension and centrifugation. The collected HT-2 cells were re-suspended in RPMI-1640 and incubated at 37° C., 5% CO2 for 30 minutes. The cells were further washed twice with RPMI-1640 by re-suspension and centrifugation, and re-suspended to final concentration of 2×10^5/ml with RPMI-1640.
rIL-2 was diluted to the following concentration with RPMI-1640: 500 IU/ml, 250 IU/ml, 125 IU/ml, 62.5 IU/ml, 31.25 IU/ml, and […].
A 96 well cell culture plate was set up with three parallel wells per combination:
Negative control: 100 μl RPMI-1640+100 μl HT-2 cell suspension
rIL-2 standard: 100 μl rIL-2 solution+100 μl HT-2 cell suspension
Assay well: 100 μl diluted supernatant+100 μl HT-2 cell suspension
The plate was incubated at 37° C., 5% CO2 for 68 hours, then centrifuged at 150 g for 15 minutes and the supernatant removed. 100 μl 0.5 mg/ml MTT in RPMI-1640 without phenolsulfonphthalein was added into each well. After shaking for 3-4 minutes to re-suspend the cells, continue to incubate for another 4 hours. Samples were then centrifuged at 150 g for 15 minutes and the supernatant was removed. To each well, 120 μl 40 mM HCl-2-propanol was added, mixed for 3-4 minutes and OD analyzed at 570 nm, referenced at 630 nm with an ELISA plate reader.
The average OD of the three parallel wells of each dilution was taken and plotted against concentration on a semi-log paper, concentration on the X-axis. The concentration at 50% OD saturation was obtained for both the testing supernatant and rIL-2.

anti-SRBC antibody = assay: humoral immunity (SRBC hemolysis index) of mice bearing transplanted B16 melanoma; format: in vivo, C57BL/6 mice; parameters: key: index = (OD540 of test sample ÷ reference OD540) × 500
Method: Intraperitoneal injection, once per day. […] Treatment of all groups with testing substance lasted for 30 days or until the animal died unless otherwise specified.
Stock B16 mouse melanoma cells were incubated in DMEM/F12 medium supplemented with 10% fetal bovine serum, 37° C./5% CO2 for 72 hrs, then washed 3-4 times with Hank's solution. The cell concentration was adjusted to 1×10^5 per ml with Hank's solution and 0.1 ml of the cell suspension was injected via the tail vein into the testing mice to generate the B16 melanoma bearing animal model. Treatment with test substance started as described in section Method 1.
Sheep red blood cells (SRBC) were prepared by collecting blood from the cervical vein and put into a sterile flask with glass beads. The flask was shaken for 3 minutes and the blood then mixed with Alsever solution (glucose 2.05 g, NaCl 0.4 g, […] 0.8 g, adjust to 100 ml with distilled water) and stored at 4° C. Immediately before use, samples were centrifuged at 130 g, 5 minutes to collect the SRBC. The cells were washed two times by re-suspension and centrifugation in normal saline. Then the cell pellet was collected by centrifugation at 180 g for 10 minutes and re-suspended in saline to make the final working SRBC suspension, 2% (v/v).
Complement was prepared by adding 10 volumes of fresh Cavy serum into one volume centrifuge packed SRBC, and then gently shaken for 30 minutes at 4° C. The SRBC was removed by centrifugation at 200 g for 10 minutes. 10 volumes of normal saline were added to obtain the working complement solution.
On the testing animals, on the 27th date of test substance treatment, 0.2 ml of the working SRBC cell suspension was injected into each animal to raise antibody. On the day after the last test substance administration, blood was collected from the eye canthus and left at room temperature for one hour for serum exudation. After centrifugation at 200 g for 10 minutes, the collected serum was diluted by 500 times with normal saline.
To 1 ml diluted mouse serum of each mouse, 0.5 ml SRBC suspension was added. Ice cold. Then 1 ml working complement solution was added and incubated at 37° C. water bath for 10 minutes. Reactions were terminated by ice cold. Samples were then centrifuged at 200 g for 10 minutes to obtain the supernatant.
To 1 ml of this supernatant, 3 ml Drabkin solution was added and left at room temperature for 10 minutes. OD540nm was obtained.
Reference OD540nm was obtained by mixing 0.25 ml SRBC suspension with Drabkin solution to 4 ml and placed at room temperature for 10 minutes before OD540nm was taken. Hemolysis index=(OD540nm of test sample÷reference OD540 nm)×500 6.2 After the Humoral Immunity Study, the Mice were Killed by Cervical Vertebra Dislocation. Postmortum Examination of the Animals was Performed. The Pathological Changes were Recorded, and the Numbers of Melanoma Lung Metastasis Foci were Counted. Results 1. The Effect of Peptide on the Cellular Phagocytosis in BALB/c Mice with Transplanted S180 Sarcoma (Method 2.1)

T lymphocyte [2] = tested on: T lymphocyte; parameters: species or system BALB/c mice; conditions: mouse, in vivo, ip
mononuclear phagocyte = assay: carbon particle clearance test, phagocytotic activity of mononuclear phagocyte; format: in vivo, BALB/c mice; parameters: key: α = (cube root of K)×(body weight ÷ liver+spleen weight); conditions: IFN-γ and IL-2 groups 3×10^5 IU/kg/day, X ± SD
Method in brief: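 Mice received India ink (0.1 ml/kg i.v., 5-fold diluted) on day 16, one day after last dosing; blood at 1 and 5 min was lysed in 0.1% Na2CO3 and read at OD680. Clearance index K from log OD decline; phagocytic index α = ∛K × body weight/(liver+spleen weight); thymus and spleen indices as % body weight.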

[3] = peptide 0.5 μg/kg/day i.p. 15 days
[4] = peptide 50 μg/kg/day i.p. 15 days
[5] = peptide 5 μg/kg/day i.p. 15 days
[6] = peptide 500 μg/kg/day i.p. 15 days

| Molecule | activity of T lymphocyte in secreting IL-2 (T lymphocyte [1]; [3]) | Hemolysis index (anti-SRBC antibody; 0.5 μg/kg i.p. once per day) | Hemolysis index (anti-SRBC antibody; 5 μg/kg i.p. once per day) | Hemolysis index (anti-SRBC antibody; 50 μg/kg i.p. once per day) | activity of T lymphocyte in secreting IL-2 (T lymphocyte [1]; [4]) | activity of T lymphocyte in secreting IFN (T lymphocyte [2]) | phagocytotic index (mononuclear phagocyte; [5]) | phagocytotic index (mononuclear phagocyte; [6]) | Hemolysis index (anti-SRBC antibody; 500 μg/kg i.p. once per day) | activity of T lymphocyte in secreting IL-2 (T lymphocyte [1]; [6]) | phagocytotic index (mononuclear phagocyte; [3]) | phagocytotic index (mononuclear phagocyte; [4]) | activity of T lymphocyte in secreting IL-2 (T lymphocyte [1]; [5]) [IU] | Hemolysis index (anti-SRBC antibody; 3 × 10^5 IU/kg i.p. once per day) |
| --- | --- | --- | --- | --- | --- | --- | --- | --- | --- | --- | --- | --- | --- | --- |
| Pro Glu Asn Phe (PENF; listed as Sus scrofa) [CMS034] | 85 ± 10*^ IU | 50.8 ± 18.4*^$ | 43.0 ± 11.7*^$ | 30.2 ± 10.9 | – | – | – | – | – | – | – | – | – | – |
| FNFVPP [CMS003] | – | 61.6 ± 26.9*^$ | 37.2 ± 15.9*^$ | 38.7 ± 13.5*^$ | 86 ± 9*^ IU | 106 ± 16 IU | 6.9 ± 0.9*^ | 6.6 ± 0.7 | 35.9 ± 13.0*^$ | – | – | – | – | – |
| VAPEEHPTLLTEAPLNPK [CMS010] | 66 ± 11 IU | 34.9 ± 10.5*^$ | 51.0 ± 14.6*^$ | 39.6 ± 7.7*^$ | – | 167 ± 13*^@^ IU and 142 ± 18*^@^ IU | 7.1 ± 0.7*^ | – | 50.1 ± 16.7*^$ | 125 ± 17*^@^ IU | – | – | – | – |
| Tyr Ser Leu (YSL; listed as Sus scrofa) [CMS024] | – | 43.0 ± 10.7*^$ | 42.2 ± 11.8*^$ | 27.8 ± 9.1 | – | – | – | 6.4 ± 1.0 | 30.1 ± 10.0 | – | 6.7 ± 0.5*^ | 6.6 ± 0.7 | – | – |
| LRVAPEEHPTL [CMS009] | – | – | – | – | – | 121 ± 15*^ IU | 6.9 ± 0.9*^ | – | – | 114 ± 13*^@^ IU | – | – | – | – |
| KAVGHLDDLPGAL [CMS008] | – | 42.7 ± 18.4*^$ | 38.9 ± 12.0*^$ | 37.1 ± 16.7*^$ | – | – | 6.4 ± 0.5 | 6.5 ± 1.2 | 50.1 ± 17.8*^$ | – | – | – | – | – |
| RVAPEEHPTL [CMS011] | 101 ± 19*^@^ IU | 32.0 ± 14.7 | – | – | – | 89 ± 18 IU | 6.4 ± 1.1 | – | 34.4 ± 19.4 | – | – | – | – | – |
| VGMGQKDSY [CMS019] | – | 42.0 ± 12.0*^$ | 35.4 ± 15.1*^$ | 28.3 ± 7.6 | – | – | 6.8 ± 0.6*^ | – | – | – | – | 6.7 ± 0.9*^ | – | – |
| Phe Val Asn Asp (FVND; listed as Sus scrofa) [CMS035] | – | – | 38.9 ± 21.2*^$ | 44.7 ± 22.7*^$ | – | – | 6.9 ± 0.9*^ | – | 40.5 ± 25.8 | – | – | – | – | – |
| PSIVGRPRHQGVM [CMS015] | – | – | – | – | – | – | – | – | – | 85 ± 17*^ IU | – | – | – | – |
| PTTKTYFPHF [CMS001] | – | 51.0 ± 16.2*^$ | 41.3 ± 17.7*^$ | 45.0 ± 31.9*^$ | 60 ± 10 IU | – | – | – | 36.0 ± 10.2*^$ | – | – | – | – | – |
| IGMESAGIHETTY [CMS016] | – | – | – | – | – | 162 ± 19*^@^ IU | 6.9 ± 0.8*^ | – | 43.3 ± 29.9 | – | – | – | – | – |
| B1 | 87 ± 15 IU | – | – | – | 99 ± 16 IU | 139 ± 16 IU and 125 ± 18 IU and 124 ± 16 IU | 6.4 ± 0.9 | 6.4 ± 0.9 | – | 100 ± 18 IU | 6.4 ± 0.9 | 6.4 ± 0.9 | 96 ± 14 | 60.5 ± 17.4 |
